In patent US20250339518A1 (priority 2023, published 2025):

Assays:
Format in all cases: cell-based, murine
MB49-STING KO cell line = tested on: MB49-STING KO cell line
[1] = tested on: MB49-Double KO (MB49 2KO) cell line
MB49 cells [2] = tested on: MB49 cells
MB49 cells [3] = tested on: MB49 cells; remark: listed apart in the source

Row | Compound | PD-L1 and MHC-I surface expression (MB49-STING KO cell line) | IFN-β production [1] | Surface PD-L1 expression [1] | PD-L1 surface expression (MB49 cells [2]) | Type I IFN (IFN-β) production in culture supernatants (MB49 cells [3]) | VAX014-induced IFN-β production, pIRF3/IRF3 ratios and PD-L1/MHC-I surface expression after inhibitor preincubation (MB49-STING KO cell line)
1 | Cc1ccc2c(=O)c3cccc(CC(=O)O)c3oc2c1C [DMXAA] | loss of PD-L1 and MHC-I | Complete loss | Complete loss | able to induce PD-L1 expression | stimulated IFN production | 
2 | CC(C)c1ccc2oc3nc(N)c(C(=O)O)cc3c(=O)c2c1 [Amlexanox] |  |  |  |  |  | nearly to baseline conditions of the untreated control
